Measured values: patent publication US11390812B2, “Compound, composition, cured object, optically anisotropic body, and reflective film” (FUJIFILM Corporation, priority 2018, dated 2022)

Experiments:
Assay type in all cases: physicochemical
[1] = Light fastness test of optically anisotropic film; conditions: film of compound 50 parts with B-2 50 parts; xenon, 5 million lx·h for 50 hours, 63° C., 50% RH, oxygen-blocking; transmittance change at 420 nm
Experimental: <Light Fastness Evaluation>
(Production of Optically Anisotropic Film)
A coating liquid having the following composition was prepared and applied to a rubbing-treated glass equipped with an alignment film by spin-coating. Each composition was irradiated with ultraviolet rays of 500 mJ/cm^2 through a filter that cuts light having a wavelength of 350 nm or less on a hot plate heated to a temperature until showing a nematic phase, and thereby an optically anisotropic film was produced.
The produced optically anisotropic film was irradiated with light using a Super Xenon Weather Meter SX75 manufactured by Suga Test Instruments Co., Ltd. Using KU-1000100 manufactured by King Seisakusho Co., Ltd. as a UV cut filter, a light fastness test was conducted by irradiation of 5 million l×h of light for 50 hours under an oxygen-blocking condition. A temperature of the test subject (a temperature inside the test device) was set to 63° C. A relative humidity in the test device was 50% RH.
A transmittance change of the optically anisotropic film before and after the light fastness test was measured. Light fastness in a case where a transmittance change at 420 nm was less than 5% was evaluated as A, and light fastness in a case where a transmittance change at 420 nm was 5% or more was evaluated as B. As a transmittance change became small, light fastness was more excellent.

[2] = Measurement of solution absorption spectrum (colorability evaluation); conditions: chloroform solution, 1 cm cell; for λmax: wavelength of maximum light absorption coefficient in the region of 300 nm or more; for λ (1000): wavelength showing light absorption coefficient ε of 1000 in the region of 300 nm or more
Experimental: <Measurement of Solution Absorption Spectrum (Colorability Evaluation)>
A solution absorption spectrum of each of the compounds was measured using a spectrophotometer UV-3100PC manufactured by Shimadzu Corporation. Using chloroform as a solvent, a solution in which a predetermined amount of the compound was dissolved was measured in a 1 cm cell, and λmax and λ (1000) were calculated from the obtained spectrum and molecular weight. λmax represents a wavelength showing the maximum light absorption coefficient in the region of 300 nm or more, and λ (1000) represents a wavelength showing a light absorption coefficient ε of 1000 in the region of 300 nm or more. It can be evaluated that as wavelengths of λmax and λ (1000) became smaller (as wavelengths became shorter), colorability of the compound was more inhibited.
For example, λmax is preferably 310 nm or less. In addition, λ (1000) is preferably 350 nm or less and more preferably 325 nm or less.

[3] = Measurement of Δn (refractive index anisotropy), wedge-shaped liquid crystal cell; conditions: at 550 nm and 30° C.; for compounds liable to crystallize estimated from extrapolated values of mixtures with other liquid crystals
Excerpt: As a method of measuring the Δn, a method using a wedge-shaped liquid crystal cell described on page 202 of the Liquid Crystal Handbook (edited by Liquid Crystal Handbook Editing Committee, published by Maruzen Co., Ltd.) is generally used. In a case of a compound which is liable to crystallize, it is also possible to carry out evaluation with a mixture thereof with other liquid crystals and to estimate Δn from extrapolated values thereof.
The Δn corresponds to a measurement value at a wavelength of 550 nm at 30° C.
<Measurement of Δn (Refractive Index Anisotropy)>
Δn of each of the compounds was measured by a method using a wedge-shaped liquid crystal cell described on page 202 of the Liquid Crystal Handbook (edited by Liquid Crystal Handbook Editing Committee, published by Maruzen Co., Ltd.). In a case of the compound which is liable to crystallize, evaluation with a mixture thereof with other liquid crystals was carried out and Δn was estimated from extrapolated values thereof. The values in the table represent Δn's at 550 nm and 30° C.
Δn in Comparative Example 1 is a measurement value in a nematic phase.

[4] = Solubility evaluation in methyl ethyl ketone; conditions: room temperature (23° C.), precipitation concentration
Experimental: Solubility of each of the compounds in methyl ethyl ketone was evaluated. A solution in which the compound was ultrasonically dissolved or dissolved by heating was produced. […] Solutions were produced at various concentrations for each of the compounds, and solubility of the compound was evaluated according to the following criteria, using a concentration at which the compound was precipitated as a precipitation concentration. As a precipitation concentration became higher, solubility of the compound was more excellent.
A: a precipitation concentration was 20% by mass or more
B: a precipitation concentration was 10% by mass or more and less than 20% by mass
C: a precipitation concentration was less than 10% by mass

SMILES	Light fastness [1]	λmax [2]	λ (1000) [2]	Δn [3]	Solubility [4]
C=CC(=O)OCCc1ccc(C#Cc2ccc(COc3ccc(C#Cc4ccc(CCOC(=O)C=C)cc4)cc3C(F)(F)F)cc2)cc1 [Compound A-4]	A (a transmittance change at 420 nm was less than 5%)	309 nm	325 nm	0.36	A (a precipitation concentration was 20% by mass or more)
C=CC(=O)OCCc1ccc(C#Cc2ccc(COc3ccc(C#Cc4ccc(CCOC(=O)C=C)cc4)cc3)cc2)cc1 [Compound A-2]	A (a transmittance change at 420 nm was less than 5%)	309 nm	327 nm	0.34	C (a precipitation concentration was less than 10% by mass)
C=CC(=O)OCCc1ccc(C#Cc2ccc(COc3ccc(C#Cc4ccc(CCOC(=O)C=C)cc4)cc3C(C)(C)C)cc2)cc1 [Compound A-5]	A (a transmittance change at 420 nm was less than 5%)	308 nm	329 nm	0.33	A (a precipitation concentration was 20% by mass or more)
C=CC(=O)OCCc1ccc(C#Cc2ccc(CCc3ccc(C#Cc4ccc(CCOC(=O)C=C)cc4)cc3)cc2)cc1 [Compound A-1]	A (a transmittance change at 420 nm was less than 5%)	309 nm	320 nm	0.30	C (a precipitation concentration was less than 10% by mass)
C=CC(=O)OCCc1ccc(C#Cc2ccc(COc3ccc(C#Cc4ccc(CCOC(=O)C=C)cc4)cc3C(=O)OC)cc2)cc1 [Compound A-6]	A (a transmittance change at 420 nm was less than 5%)	308 nm	343 nm	0.37	A (a precipitation concentration was 20% by mass or more)
C=CC(=O)OCCc1ccc(C#Cc2ccc(COc3ccc(C#Cc4ccc(CCOC(=O)C=C)cc4)cc3C)cc2)cc1 [Compound A-3]	A (a transmittance change at 420 nm was less than 5%)	308 nm	327 nm	0.34	B (a precipitation concentration was 10% by mass or more and less than 20% by mass)
C=CC(=O)OCCc1ccc(C#Cc2ccc(COc3ccc(C#Cc4ccc(CCOC(=O)C=C)cc4)cc3C(=O)OC(C)(C)C)cc2)cc1 [Compound A-7]	A (a transmittance change at 420 nm was less than 5%)	309 nm	339 nm	0.33	A (a precipitation concentration was 20% by mass or more)
CC(=O)OCCCCCCCCCCOc1ccc(C#Cc2ccc(OC(=O)c3ccc(C#Cc4ccc(OCCCCCCCCCCOC(C)=O)c(F)c4)cc3)cc2)cc1F [Compound B-1, reference compound]	B (a transmittance change at 420 nm was 5% or more)	315 nm	364 nm	0.25	C (a precipitation concentration was less than 10% by mass)
